# From patent US12115176B2, “Methods and compositions relating to ClbP inhibition” (PRESIDENT AND FELLOWS OF HARVARD COLLEGE, priority 2021, dated 2024)
# Entries after “also recorded” stand apart in the source; their conditions may differ.
# Legend:
# [1] = molecular target: purified ClbP (Escherichia coli, UniProt Q0P7K6); assay: ClbP fluorescence activity assay (in vitro); assay type: biochemical, Escherichia coli CFT073
# Text: Constructs and protein purification for in vitro assays. ClbP constructs described in this publication were derived from a previously described plasmid containing the Escherichia coli CFT073 ClbP sequence (GenBank ID: NP_754344.1) inserted between the NdeI and XhoI restriction sites of pET29b (Addgene plasmid #48244).^14 All in vitro experiments used a construct bearing a C-terminal 10×His tag. This longer polyhistidine-tag was obtained by extension of the previously described 6×His tag through site-directed mutagenesis. All site-directed mutations were introduced using the Quikchange mutagenesis protocol (Stratagene) and confirmed by Sanger DNA sequencing of the whole open reading frame. Plasmids were transformed into chemically competent C41(DE3) (Lucigen) cells and proteins were isolated as previously described.^34
# ClbP fluorescence activity assay (in vitro). Assays were performed in a buffer containing 50 mM Tris, 200 mM NaCl, 0.02% w/v DDM at pH 8.0 with 25 nM purified ClbP and 25 μM fluorogenic substrate in a total volume of 20 μL.^34 Purified ClbP was defrosted on ice from stocks stored at −80° C. Stocks were diluted to 50 nM enzyme in assay buffer in the wells of a black, flat-bottom 384-well plate and the appropriate inhibitor in DMSO or DMSO was added to a final concentration of 1%. For experiments testing different inhibitor concentrations, reactions were allowed to sit for 1 hour at room temperature. For experiments testing different preincubation times, the inhibitor in DMSO was added to each reaction X minutes before initiating the reaction, where X is the time indicated on the x-axis for that sample. For experiments to test whether hydrolysis of the boronic ester was rate-limiting, the inhibitor was added to buffer with no enzyme present and allowed to sit at room temperature for the time indicated before adding the enzyme. In all cases, reactions were initiated by the addition of 10 μL, of buffer containing the 50 μM fluorogenic substrate to achieve a final concentration of 25 μM and pipetting once with a multichannel pipette to mix. Reaction progress was monitored in a plate reader (Bio-Tek Synergy HTX multimode plate reader) with an excitation filter of 360/40 nm and an emission filter of 440/20 nm. “% activity” was determined based on the measured relative fluorescence units (RFU) of each condition after 1 hour using the following formula: […]
# [2] = test system: Lactobacillus rhamnosus; assay: Bacterial MIC assay (broth dilution); assay type: cell-based; details: Lacticaseibacillus rhamnosus, 15 h, read-out: MICs by compound
# [3] = test system: serine hydrolases in E. coli cell lysates; assay: Gel-based ABPP with fluorophosphonate probe (FP); assay type: binding; details: inhibitor up to 100 μM
# Text: To further explore other possible targets of inhibitors 1-4, an activity-based protein profiling (ABPP) approach was used to assay their activity against a wide variety of serine hydrolases in bacterial and mammalian proteomes. […] One limitation of this assay is that ClbP is not labeled by the FP probe, so it cannot be observed as a reference for binding. Any other proteins which evade labeling by FP would also not be detected in this assay.
# Activity-Based Protein Profiling. Bacterial or mammalian cell lysates were normalized to 1 mg/mL protein concentrations in PBS using the DC protein assay (Bio-Rad). 50 μL aliquots of lysates were incubated with compounds at the indicated concentrations (1 μL of a 50X stock in DMSO) for 30 minutes at room temperature and subsequently labeled with 5 μM of fluorophosphonate-PEG(4)-biotin probe (1 μL of a 50X stock in DMSO, synthesized as previously reported)^56 for 1 hour at room temperature. The reactions were mixed with 50 μL of 2X SDS protein loading buffer, boiled for 10 minutes at 95° C., and separated by SDS-PAGE. The labeled proteins were detected by IRdye-conjugated streptavidin (Li-Cor) and visualized using the GellOdyssey™ Imaging System (Li-Cor).^56
# [4] = test system: HeLa cells infected with NC101; assay: HeLa infection assay with pks+ E. coli, cell cycle analysis by flow cytometry; assay type: cell-based, human
# Description: Infection with pks^+ E. coli. Assays for cell-cycle arrest and FANCD2 ubiquitination were performed by seeding 24-well plates with 125,000 HeLa cells per well and incubating those plates under standard conditions for 24 hours. At the same time, cultures of NC101 and NC101ΔclbP were started from frozen stocks in LB broth and grown at 37° C. with shaking overnight. […] Cultures were monitored until an OD600 of 0.3-0.5 was reached. At that point, samples of the cultures were removed and DMSO stock solutions of the inhibitor of interest were added to each sample to a final concentration of 1% DMSO and the concentration of inhibitor indicated.
# Media in the 24-well plate was aspirated, HeLa cells were washed with sterile DPBS (Thermo Fisher Scientific), and fresh DMEM+FBS+1% DMSO with the indicated concentration of inhibitor was added. A volume of E. coli equivalent to 2.5×10^7 bacteria based on OD in DMEM+FBS+1% DMSO with the indicated concentration of inhibitor was then added directly to wells (Multiplicity of Infection, MOI 1:100). Infections were carried out for 4 hours at 37° C. in a humidified 5% CO2 incubator. Media was then aspirated and cells were washed with DPBS twice to remove bacteria, and fresh DMEM+FBS+PSF supplemented with 50 μg/mL gentamicin was added.
# Cell Cycle Analysis. Between 20 and 24 hours after infection, HeLa cells were trypsinized (0.25% Trypsin-EDTA, Gibco), washed with DPBS, and fixed in cold 70% ethanol and stored at 4° C. until flow cytometry analysis (24-48 hours). Cells were centrifuged at 800×g for 10 minutes and 70% ethanol was aspirated. Cells were resuspended in DPBS for 15 minutes, then centrifuged and supernatant aspirated again. Cells were then resuspended in DPBS with 0.2 mg/mL RNAse A (Invitrogen) and 0.02 mg/mL propidium iodide (Millipore Sigma). After 30 minutes, cells were analyzed on a BD LSR II Analyzer at the Harvard University Bauer Core Flow Cytometry Facility. For each replicate, 10,000 events were collected and results were gated for single cells and plotted using the FloJo™ software package.
# [5] = test system: Enterococcus faecalis; assay: Bacterial MIC assay (broth dilution); assay type: cell-based; details: 15 h, read-out: MICs by compound
structure (smiles),measurement,setting,value
CC1(C)OB([C@@H](CC(N)=O)NC(=O)CCCc2ccccc2)OC1(C)C [Compound 3],IC50,[1],28 nM
same,"speed of reaching maximum potency, in words","[1]; slow-binding inhibition assay, 100 nM",achieved their maximum potency faster than compound 4
same,MIC,[2],> 200 µM
same,change in protein labeling by FP probe,[3],does not identify any significant targets
same,concentration that completely blocks G2/M phase cell cycle arrest,"[4]; HeLa and NC101, inhibitor in the infection medium, FIG. 12A",≤ 100 nM
same,concentration that completely blocks G2/M phase cell cycle arrest,"[4]; HeLa and pks+ E. coli, 1-hour preincubation of inhibitor with E. coli, FIG. 4",≤ 5 nM
same,cell cycle arrest phenotype of colibactin genotoxicity,"[4]; HeLa cells infected with NC101, propidium iodide flow cytometry",can block the cell cycle arrest phenotype; also recorded: prevents cell cycle arrest
same,IC50,"[4]; Homo sapiens, HeLa cells infected with pks+ E. coli, FIG. 4, read-out: apparent IC50 for inhibition of G2/M-phase arrest",~10 nM
same,MIC,[5],> 200 µM
